Earlier results as cited in patent US8461314B2, “Nucleic acid sequences for biosynthesis of non-MccJ25-related lariat peptides” (Rutgers, The State University of New Jersey, priority 2007, dated 2013).

Key:
[1] = target: Gram-negative bacterial RNA polymerase (Escherichia coli, UniProt P0A8T7+P0A8V2)
[2] = target: Gram-positive bacterial RNAP (Bacillus subtilis, UniProt P37870+P37871)
[3] = target: Thermus-Deinoccoccus bacterial RNAP (Thermus thermophilus, UniProt Q8RQE8+Q8RQE9); settings: including, for example
Gram-positive bacterial = settings: Gram-positive bacteria
[4] = system: Thermococcus-Deinococcus bacterial growth; settings: Thermococcus-Deinococcus bacteria
[5] = system: RNA polymerase derivatives resistant to rifamycins
[6] = tested thermal and chemical denaturants
bacterial RNA polymerase = bacterial RNA polymerase (Escherichia coli, UniProt P0A8T7+P0A8V2)
[7] = system: mesophilic endo- and exopeptidease

Gram-positive bacterial RNAP, sequence (P20429 whole entry): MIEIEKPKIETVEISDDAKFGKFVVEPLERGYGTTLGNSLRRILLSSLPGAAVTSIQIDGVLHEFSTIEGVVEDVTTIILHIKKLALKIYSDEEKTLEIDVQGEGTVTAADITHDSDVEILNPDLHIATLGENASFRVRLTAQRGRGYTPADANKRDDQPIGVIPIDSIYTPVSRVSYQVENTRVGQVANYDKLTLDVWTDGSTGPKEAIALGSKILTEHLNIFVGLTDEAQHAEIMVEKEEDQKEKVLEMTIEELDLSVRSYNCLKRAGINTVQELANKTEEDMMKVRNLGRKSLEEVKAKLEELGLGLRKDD
Gram-positive bacterial RNAP, sequence (P37871 whole entry): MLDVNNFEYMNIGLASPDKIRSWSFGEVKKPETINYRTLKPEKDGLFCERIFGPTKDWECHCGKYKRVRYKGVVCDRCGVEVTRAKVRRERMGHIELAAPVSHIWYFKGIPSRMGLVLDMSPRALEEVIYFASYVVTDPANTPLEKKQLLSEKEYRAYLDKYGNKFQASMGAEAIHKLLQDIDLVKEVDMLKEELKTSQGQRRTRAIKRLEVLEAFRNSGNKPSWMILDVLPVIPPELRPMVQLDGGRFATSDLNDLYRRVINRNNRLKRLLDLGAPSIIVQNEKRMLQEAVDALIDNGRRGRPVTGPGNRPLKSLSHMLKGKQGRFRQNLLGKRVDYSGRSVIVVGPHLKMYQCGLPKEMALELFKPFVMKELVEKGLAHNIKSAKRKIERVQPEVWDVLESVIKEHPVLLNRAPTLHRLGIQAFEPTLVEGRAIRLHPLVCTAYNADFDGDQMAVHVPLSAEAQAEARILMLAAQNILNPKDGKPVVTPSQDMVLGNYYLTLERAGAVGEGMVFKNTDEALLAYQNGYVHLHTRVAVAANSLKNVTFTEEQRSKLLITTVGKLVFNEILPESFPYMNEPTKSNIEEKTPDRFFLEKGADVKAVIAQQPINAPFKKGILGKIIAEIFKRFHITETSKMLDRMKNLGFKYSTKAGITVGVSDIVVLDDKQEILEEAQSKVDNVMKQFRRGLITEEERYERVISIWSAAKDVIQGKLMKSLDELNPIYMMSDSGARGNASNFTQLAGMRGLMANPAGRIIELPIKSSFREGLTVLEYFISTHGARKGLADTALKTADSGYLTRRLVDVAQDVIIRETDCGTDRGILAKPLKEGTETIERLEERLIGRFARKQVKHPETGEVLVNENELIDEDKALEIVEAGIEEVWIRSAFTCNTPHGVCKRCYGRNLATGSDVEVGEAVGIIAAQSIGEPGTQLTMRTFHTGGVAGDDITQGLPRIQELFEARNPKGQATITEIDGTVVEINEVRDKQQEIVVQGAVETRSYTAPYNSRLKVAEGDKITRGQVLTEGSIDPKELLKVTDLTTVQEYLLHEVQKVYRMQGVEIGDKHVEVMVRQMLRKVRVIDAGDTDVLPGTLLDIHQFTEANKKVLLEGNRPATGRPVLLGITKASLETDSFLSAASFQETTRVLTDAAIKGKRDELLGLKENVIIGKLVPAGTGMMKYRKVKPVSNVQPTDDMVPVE
Gram-positive bacterial RNAP, sequence (O35011 whole entry, further chain): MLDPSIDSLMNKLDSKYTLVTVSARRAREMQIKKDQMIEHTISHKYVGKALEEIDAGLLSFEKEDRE
Gram-positive bacterial RNAP, sequence (P37870 whole entry): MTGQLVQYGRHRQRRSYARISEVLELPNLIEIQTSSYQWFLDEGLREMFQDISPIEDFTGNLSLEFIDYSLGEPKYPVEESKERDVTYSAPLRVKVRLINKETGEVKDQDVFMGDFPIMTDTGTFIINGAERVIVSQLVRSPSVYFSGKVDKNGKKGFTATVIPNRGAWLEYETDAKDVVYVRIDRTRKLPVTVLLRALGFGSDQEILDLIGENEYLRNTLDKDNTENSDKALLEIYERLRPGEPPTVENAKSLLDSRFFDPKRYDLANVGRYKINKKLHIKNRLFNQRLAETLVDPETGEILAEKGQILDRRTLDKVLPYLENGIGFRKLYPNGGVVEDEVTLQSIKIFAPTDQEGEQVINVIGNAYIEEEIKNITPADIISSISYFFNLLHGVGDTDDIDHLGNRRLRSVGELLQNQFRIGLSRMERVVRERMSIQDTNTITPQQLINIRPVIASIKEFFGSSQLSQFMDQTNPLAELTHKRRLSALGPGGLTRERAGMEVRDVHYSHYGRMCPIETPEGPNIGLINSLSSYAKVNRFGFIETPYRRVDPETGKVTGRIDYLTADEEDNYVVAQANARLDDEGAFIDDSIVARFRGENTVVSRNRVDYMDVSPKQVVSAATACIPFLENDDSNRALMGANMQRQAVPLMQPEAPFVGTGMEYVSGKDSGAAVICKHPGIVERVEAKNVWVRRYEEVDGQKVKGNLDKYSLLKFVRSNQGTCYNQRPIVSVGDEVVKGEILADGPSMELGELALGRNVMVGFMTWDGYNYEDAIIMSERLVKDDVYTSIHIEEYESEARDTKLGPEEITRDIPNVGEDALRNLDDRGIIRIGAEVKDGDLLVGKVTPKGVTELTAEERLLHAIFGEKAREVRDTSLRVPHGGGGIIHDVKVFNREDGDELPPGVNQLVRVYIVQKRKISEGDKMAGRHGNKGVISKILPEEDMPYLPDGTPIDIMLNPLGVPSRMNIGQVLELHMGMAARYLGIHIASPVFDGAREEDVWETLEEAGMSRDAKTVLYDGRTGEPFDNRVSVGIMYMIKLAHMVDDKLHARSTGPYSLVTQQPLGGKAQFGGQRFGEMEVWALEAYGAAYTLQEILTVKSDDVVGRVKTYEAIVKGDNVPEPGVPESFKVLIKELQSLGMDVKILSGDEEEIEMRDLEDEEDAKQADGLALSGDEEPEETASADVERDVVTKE

Substance	inhibition of Gram-negative bacterial RNA polymerase [1]	inhibition of Gram-positive bacterial RNAP [2]	inhibition of Thermus-Deinoccoccus bacterial RNAP [3]	antibacterial activity (Escherchia coli)	antibacterial activity (Salmonella sp.)	inhibition of bacterial growth (Gram-positive bacterial)	inhibition of bacterial growth [4]	ability to inhibit RNA polymerase derivatives resistant to rifamycins [5]	cross-resistance with rifamycins [5]	resistance to denaturation [6]	inhibition of bacterial RNA polymerase (bacterial RNA polymerase)	resistance to proteolysis [7]
Gly1-Gly2-Ala3-Gly4-His5-Pro6-Val7-Glu8-Tyr9-Phe10-Val11-Gly12-Ile13-Gly14-Thr15-Pro16-Ile17-Ser18-Phe19-Tyr20-Gly21 cyclic(8→1) peptide [MccJ25]	inhibits	does not inhibit	does not inhibit	exhibits antibacterial activity	exhibits antibacterial activity	not inhibit	not inhibit	retains full ability to inhibit	no cross-resistance	complete resistance	inhibits	complete resistance
propeptin	inhibit	inhibit	inhibit	–	–	–	–	–	–	–	inhibit	–
